In patent US8802672B2, “Pyrimidinyl-piperazines useful as D3/D2 receptor ligands” (Richter Gedeon Nyrt., priority 2007, dated 2014):

Key:
[1] = target: rat recombinant D3 receptors (Rattus norvegicus (Rat), UniProt P19020); test: D3 receptor binding; settings: for Ki: [3H]spiperone, rat recombinant D3 in Sf9 cells
male Wistar rats [2] = test: Catalepsy test; assay type: in vivo; settings: rat; for Catalepsy (MED): oral, minimum effective cataleptic dose; for TI, therapeutic index - catalepsy MED divided by amphetamine hypermotility ED50: in vivo
[3] = target: D2 receptor (rat brain striatal membrane preparation) (Rattus norvegicus (Rat), UniProt P61169); test: D2 receptor binding; settings: [3H]spiperone, rat striatal membranes
[4] = target: adrenergic alpha-1 receptors (rat cortical membrane preparation); test: Alpha-1 receptor binding; settings: [3H]-prazosine, rat cortical membranes; read-out: α-1 Ki
male Wistar rats [5] = test: Scopolamine-induced learning disturbance in the water-labyrinth; assay type: in vivo, rat
Protocol: 6. Scopolamine-Induced Learning Disturbance in the Water-Labyrinth
The learning process of rats was assessed in a 3-choice point water-labyrinth system. The number of directional turning errors was recorded in three daily trials for three experimental days. Male Wistar rats weighing 180-200 g (n=10 per groups) were treated orally with vehicle or the test compounds 1 hour before each daily session. Scopolamine (3 mg/kg ip.) as amnestic agent was injected 30 minutes prior to the first daily trial. Mean±SE of errors committed in all the trials was calculated in each group. Percent inhibition of scopolamine-induced increase in the number of errors was calculated for each dose of the tested compound.

male Wistar rats [6] = test: Amphetamine-induced hypermotility; assay type: in vivo; settings: oral, rat, d-amphetamine 0.5 mg/kg sc.; for ED50: read-out: Inhibition of amphetamine-induced hypermotility (ED50)
Protocol: 4. Amphetamine-Induced Hypermotility
One hour after the oral administration of doses of the test compound or vehicle, male Wistar rats were subcutaneously treated with d-amphetamine (0.5 mg/kg, sc.) and were individually placed in activity cages for one hour. Locomotor activity was measured in a four-channel activity monitor equipped with infrared photobeams Horizontal movement was determined as the number of beam interruptions. Mean±SE of horizontal activity data of each group was calculated. Percent inhibition of amphetamine-induced increase in locomotion was calculated for each dose of the tested compound. The ED-50 value was determined by linear regression fitted to the dose-response plot.

Sequence of D2 receptor (rat brain striatal membrane preparation) (P61169 whole entry): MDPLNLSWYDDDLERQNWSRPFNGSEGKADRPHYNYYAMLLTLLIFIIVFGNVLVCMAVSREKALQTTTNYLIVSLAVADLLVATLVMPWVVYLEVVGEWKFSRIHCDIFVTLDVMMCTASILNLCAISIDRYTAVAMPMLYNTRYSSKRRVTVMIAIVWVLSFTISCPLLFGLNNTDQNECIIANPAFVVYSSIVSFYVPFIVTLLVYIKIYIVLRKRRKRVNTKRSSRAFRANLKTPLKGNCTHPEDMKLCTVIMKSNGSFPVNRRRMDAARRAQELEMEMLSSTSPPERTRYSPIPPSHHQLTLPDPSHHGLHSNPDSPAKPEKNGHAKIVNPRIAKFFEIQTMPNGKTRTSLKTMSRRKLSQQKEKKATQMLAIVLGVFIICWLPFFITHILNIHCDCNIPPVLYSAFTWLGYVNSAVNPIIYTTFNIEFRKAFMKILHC
Sequence of rat recombinant D3 receptors (P19020 whole entry): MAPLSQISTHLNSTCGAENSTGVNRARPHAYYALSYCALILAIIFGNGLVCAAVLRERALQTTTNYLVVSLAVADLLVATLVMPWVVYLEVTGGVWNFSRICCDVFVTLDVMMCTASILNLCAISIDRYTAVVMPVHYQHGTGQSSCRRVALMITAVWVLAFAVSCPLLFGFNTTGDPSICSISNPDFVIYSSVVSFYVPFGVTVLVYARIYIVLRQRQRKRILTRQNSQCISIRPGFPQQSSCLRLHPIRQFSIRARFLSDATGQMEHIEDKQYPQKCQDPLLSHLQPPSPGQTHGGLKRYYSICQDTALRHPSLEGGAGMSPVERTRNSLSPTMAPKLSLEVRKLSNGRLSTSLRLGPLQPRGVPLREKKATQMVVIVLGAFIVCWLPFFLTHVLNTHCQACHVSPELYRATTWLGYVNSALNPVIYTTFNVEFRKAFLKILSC

| Compound | Sel. = D2/D3 selectivity, Ki for D2 receptor divided by Ki for D3 receptor [1] | Ki [1] | Ki [3] | Ki [4] | also measured |
| --- | --- | --- | --- | --- | --- |
| CNc1nc(Cl)c(Cl)c(N2CCN(CC[C@H]3CC[C@H](NC(C)=O)CC3)CC2)n1 [Compound 1, Trans-N-(4-{2-[4-(5,6-dichloro-2-methylamino-pyrimidin-4-yl)-piperazin-1-yl]-ethyl}-cyclohexyl)-acetamide] | 22 | < 1 nM | 15 to 50 nM |  | Catalepsy (MED) (male Wistar rats [2]): 100 mg/kg; TI, therapeutic index - catalepsy MED divided by amphetamine hypermotility ED50 (male Wistar rats [2]): 714 |
| CNc1nc(Cl)c(Cl)c(N2CCN(CC[C@H]3CC[C@H](NC(=O)N(C)C)CC3)CC2)n1 [Compound 8] | 7 | 1 to 3 nM | 15 to 50 nM | > 1000 nM | % inhibition of scopolamine-induced learning disturbance (male Wistar rats [5]; dose 0.025 mg/kg oral): 38%; % inhibition of scopolamine-induced learning disturbance (male Wistar rats [5]; dose 0.05 mg/kg oral): 65%; % inhibition of scopolamine-induced learning disturbance (male Wistar rats [5]; dose 1 mg/kg oral): 31%; Catalepsy (MED) (male Wistar rats [2]): >25 mg/kg; TI, therapeutic index - catalepsy MED divided by amphetamine hypermotility ED50 (male Wistar rats [2]): >179; Inhibition of amphetamine-induced hypermotility (ED50) (male Wistar rats [6]): 0.14 mg/kg |
| Cc1cc2c(s1)Nc1ccccc1N=C2N1CCN(C)CC1 [Olanzapine, reference compound] |  |  |  |  | % inhibition of scopolamine-induced learning disturbance (male Wistar rats [5]; dose 1 mg/kg oral): −12%; % inhibition of scopolamine-induced learning disturbance (male Wistar rats [5]; dose 3 mg/kg oral): −49%; ED50 (male Wistar rats [6]): 1.8 mg/kg |
| Cc1nc2n(c(=O)c1CCN1CCC(c3noc4cc(F)ccc34)CC1)CCCC2 [Risperidone, reference compound] |  |  |  |  | % inhibition of scopolamine-induced learning disturbance (male Wistar rats [5]; dose 0.5 mg/kg oral): −15%; ED50 (male Wistar rats [6]): 0.15 mg/kg |

Second part, led by results:

| Sel. = D2/D3 selectivity, Ki for D2 receptor divided by Ki for D3 receptor [1] | Ki [1] | Ki [3] | Ki [4] | Compound | also measured |
| --- | --- | --- | --- | --- | --- |
| 27 |  |  | > 1000 nM | CNc1nc(Cl)c(Cl)c(N2CCN(CC[C@H]3CC[C@H](NC(N)=O)CC3)CC2)n1 [Compound 2, Trans-(4-{2-[4-(5,6-dichloro-2-methylamino-pyrimidin-4-yl)-piperazin-1-yl]-ethyl}-cyclohexyl)-urea] |  |
| 23 |  |  | > 1000 nM | CCNc1nc(Cl)c(Cl)c(N2CCN(CC[C@H]3CC[C@H](NC(C)=O)CC3)CC2)n1 [Compound 6, trans-N-(4-{2-[4-(5,6-dichloro-2-ethylamino-pyrimidin-4-yl)-piperazin-1-yl]-ethyl}-cyclohexyl)-acetamide] |  |
|  |  |  | > 1000 nM | CNc1nc(Cl)c(Cl)c(N2CCN(CC[C@H]3CC[C@H](NC(=O)N4CCOCC4)CC3)CC2)n1 [Compound 7, trans-morpholine-4-carboxylic acid (4-{2-[4-(5,6-dichloro-2-methylamino-pyrimidin-4-yl)-piperazin-1-yl]-ethyl}-cyclohexyl)-amide] |  |
| 17 |  |  |  | CCNC(=O)N[C@H]1CC[C@H](CCN2CCN(c3nc(NC)nc(Cl)c3Cl)CC2)CC1 [Compound 10, Trans-1-(4-{2-[4-(5,6-dichloro-2-methylamino-pyrimidin-4-yl)-piperazin-1-yl]-ethyl}-cyclohexyl)-3-ethyl-urea] |  |
| 43 | < 1 nM | 5 to 15 nM | > 1000 nM | CCC(=O)N[C@H]1CC[C@H](CCN2CCN(c3nc(NC)nc(Cl)c3Cl)CC2)CC1 [Compound 11] |  |
